# Test results taken from patent US9718840B2, “Condensed 5-oxazolidinone derivative” (SUMITOMO DAINIPPON PHARMA CO., LTD., priority 2014, dated 2017).
# Assays:
# Human FIXαβ = target: T1, Human FIXαβ (Homo sapiens, UniProt P00740); assay: Enzyme selectivity evaluation test: FIXa; format: biochemical
# T1 construct: 3) Factor IXa (FIXa); purchased Enzyme Research Laboratories
# Procedure: SPECTROZYME® FIXa (D-Leu-Ph′Gly-Arg-pNA.2AcOH) (manufactured by American Diagnostica Inc.) was added as the substrate at a final concentration of 800 μmol/L. After progression of the reaction, the absorbance was measured at OD 405 nm. Change in OD in case of no addition of the test compound was defined as 100%, and the concentration at which a rise in OD value was reduced by 50% was calculated as […]
# Human plasmin = target: T2, Human plasmin (Homo sapiens, UniProt P00747); assay: Enzyme selectivity evaluation test: plasmin; format: biochemical
# T2 construct: Human plasmin (manufactured by Sekisui Diagnostics, LLC); purchased Sekisui Diagnostics, LLC
# Procedure: (§1) S-2288 (H-D-Ile-Pro-Arg-pNA.2HCl) was added as the substrate at a final concentration of 300 μmol/L. After progression of the reaction, the absorbance was measured at OD 405 nm.
# Human t-PA = target: T3, Human t-PA (Homo sapiens, UniProt P00750); assay: Enzyme selectivity evaluation test: t-PA; format: biochemical
# T3 construct: purchased Calbiochem
# Procedure: as §1
# Human tryptase = assay: Enzyme selectivity evaluation test: tryptase; format: biochemical
# Procedure: as §1
# [1] = tested on: Rabbit venous thrombus models; assay: In vivo antithrombotic effect evaluation test using rabbit (arteriovenous shunt); settings: prompt i.v. + continuous i.v.
# Procedure: Rabbit venous thrombus models were prepared by a modification of the report of Wong et al. (Wong P C. et al., J. Pharmacol. Exp. Ther. 292: 351-357 (2000)). Male rabbits (JW, 2 to 4 kg) were anesthetized by the inhalation of isoflurane (ISOFLU®, manufactured by DS Pharma Animal Health Co., Ltd.) (introduced anesthesia: 4%, continuous anesthesia: 1.5 to 2.5%). A tracheostomy tube was inserted to each rabbit, which was then ventilated using a respirator. For the intravenous administration of a test drug and blood collection, catheters were inserted to the right femoral vein and the right femoral artery, respectively. An arteriovenous shunt filled with saline was inserted to the carotid artery and the jugular vein. The arteriovenous shunt was prepared by connecting Atom extension tubes (4Fr) having lengths of 15 cm and 13 cm to the artery side and the vein side, respectively, of a polyethylene tube (length: 60 cm, outside diameter: 11.1 mm, inside diameter: 7.9 mm). Also, 4-0 silk thread having a length of 5 cm was indwelled in the arteriovenous shunt. Blood was sent for 30 minutes from the carotid artery to the jugular vein via the arteriovenous shunt. The shunt was removed, and the weight of the silk thread covered with thrombus was measured. The weight of the silk thread measured before the experiment was subtracted from the measured weight, and the obtained value was used as a wet thrombus weight. One hour before the open of the arteriovenous shunt, the test drug or a vehicle was promptly intravenously administered (0.67 mL/kg) and then continuously intravenously administered (1 mL/kg/hr). The continuous injection was continued throughout the experiment. Further, an existing anticoagulant dabigatran (antithrombin drug) and rivaroxaban (FXa inhibitor) were tested as control drugs.
# In order to measure aPTT of blood samples as an index for the intrinsic coagulation pathway, blood was collected before administration and immediately before cessation of blood flow, and plasma was prepared using 3.2% sodium citrate. After incubation at 37° C. for 6 minutes, an STA reagent Cephascreen (for aPTT assay; manufactured by Roche Diagnostics K.K.) was added in an amount equal thereto, and the mixture was further incubated for 4 minutes. STA calcium chloride (manufactured by Roche Diagnostics K.K.) was added in an amount equal thereto, and the time required for coagulation was measured.
# In order to measure prothrombin time (PT) of blood samples as an index for the extrinsic coagulation pathway, blood was collected before administration and immediately before cessation of blood flow, and plasma was prepared using 3.2% sodium citrate. After incubation at 37° C. for 10 minutes, Neoplastin Plus (for PT assay; manufactured by Roche Diagnostics K.K.) was added in a double amount, and the time required for coagulation was measured.
# [2] = Dog PK test (Test Example 7); format: in vivo; settings: plasma, 1 mg/kg, male beagle, intravenous, 1 mg/2 mL/kg, read-out: AUC from 0 hours to 24 hours (compound of Reference Example 2-6 in plasma)
# Procedure: (§2) The compound of Reference Example 2-6 was dissolved in a mixed solution of saline/0.1 N HCl=9/1, and this solution was intravenously administered at a dose of 1 mg/2 mL/kg to a male beagle. Blood collection was carried out 0.25, 0.5, 1, 2, 4, 6, and 24 hours after administration. 2 mL of blood was collected using a syringe packed with 20 μL of Novo-Heparin Injection, transferred to a centrifugal tube cooled in ice, and centrifuged at 3000 rpm at 4° C. for 10 minutes to prepare plasma. 200 μL of the prepared plasma was added to a tube containing 600 μL of acetonitrile and mixed for approximately 10 seconds using a vortex mixer. Then, the concentration of the compound of Reference Example 2-6 was measured.
# (§3) The compound of Example 1 was dissolved in a 0.5% aqueous methylcellulose solution, and this solution was orally administered at a dose of 5 mg/5 mL/kg to a male beagle fasted for 16 hours. Blood collection was carried out 0.5, 1, 2, 4, 6, and 24 hours after administration. 2 mL of blood was collected using a syringe packed with 20 μL of Novo-Heparin Injection, transferred to a centrifugal tube cooled in ice, and centrifuged at 3000 rpm at 4° C. for 10 minutes to prepare plasma. […] Then, the concentration of the compound of Reference Example 2-6 was measured.
# [3] = Dog PK test (Test Example 9); format: in vivo; settings: plasma, 1 mg/kg, male beagle, intravenous, 1 mg/2 mL/kg, read-out: AUC from 0 hours to 24 hours (compound of Reference Example 2-6 in plasma)
# Procedure: as §2
# as §3, with “Example 7” for “Example 1”, “was suspended” for “was dissolved”, “this suspension” for “this solution”
# [4] = dose 0.15 + 0.225 mg/kg + mg/kg/h
# [5] = dose 0.5 + 0.75 mg/kg + mg/kg/h
# [6] = dose 1.5 + 2.25 mg/kg + mg/kg/h
# T1 sequence (P00740 227-461 limits assumed): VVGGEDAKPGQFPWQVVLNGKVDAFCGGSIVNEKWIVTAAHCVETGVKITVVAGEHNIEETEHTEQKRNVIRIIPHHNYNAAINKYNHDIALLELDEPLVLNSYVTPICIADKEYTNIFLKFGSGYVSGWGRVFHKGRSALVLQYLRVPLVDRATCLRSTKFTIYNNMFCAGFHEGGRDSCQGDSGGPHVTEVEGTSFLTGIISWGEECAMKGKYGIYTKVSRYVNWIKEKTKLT
# T1 sequence (P00740 47-191 partner limits assumed): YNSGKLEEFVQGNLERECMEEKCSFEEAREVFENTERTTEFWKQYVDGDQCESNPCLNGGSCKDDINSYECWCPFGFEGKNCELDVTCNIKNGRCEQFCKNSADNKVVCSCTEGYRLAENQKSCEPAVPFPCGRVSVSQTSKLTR
# T3 sequence (P00750 36-562): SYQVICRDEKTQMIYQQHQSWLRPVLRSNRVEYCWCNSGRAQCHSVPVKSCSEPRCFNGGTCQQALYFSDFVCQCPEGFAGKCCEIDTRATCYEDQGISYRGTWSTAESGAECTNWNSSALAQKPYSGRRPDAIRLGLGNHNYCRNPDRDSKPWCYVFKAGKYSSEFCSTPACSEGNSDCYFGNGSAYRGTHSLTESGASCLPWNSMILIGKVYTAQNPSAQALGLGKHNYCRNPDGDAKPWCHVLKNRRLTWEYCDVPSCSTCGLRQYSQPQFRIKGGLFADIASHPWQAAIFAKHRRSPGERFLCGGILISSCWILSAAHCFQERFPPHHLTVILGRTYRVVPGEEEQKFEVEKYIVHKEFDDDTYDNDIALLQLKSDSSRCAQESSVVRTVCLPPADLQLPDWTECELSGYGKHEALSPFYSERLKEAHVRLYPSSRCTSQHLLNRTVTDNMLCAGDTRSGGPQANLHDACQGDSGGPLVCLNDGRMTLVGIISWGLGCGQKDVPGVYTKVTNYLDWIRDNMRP
# T2 sequence (P00747 581-810 limits assumed): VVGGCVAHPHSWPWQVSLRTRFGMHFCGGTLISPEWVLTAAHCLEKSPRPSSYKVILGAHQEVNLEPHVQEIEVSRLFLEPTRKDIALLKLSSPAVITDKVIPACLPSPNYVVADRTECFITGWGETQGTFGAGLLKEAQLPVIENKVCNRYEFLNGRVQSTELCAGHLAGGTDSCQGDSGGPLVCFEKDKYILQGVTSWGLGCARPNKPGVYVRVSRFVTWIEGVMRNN
# T2 sequence (P00747 97-580 partner limits assumed): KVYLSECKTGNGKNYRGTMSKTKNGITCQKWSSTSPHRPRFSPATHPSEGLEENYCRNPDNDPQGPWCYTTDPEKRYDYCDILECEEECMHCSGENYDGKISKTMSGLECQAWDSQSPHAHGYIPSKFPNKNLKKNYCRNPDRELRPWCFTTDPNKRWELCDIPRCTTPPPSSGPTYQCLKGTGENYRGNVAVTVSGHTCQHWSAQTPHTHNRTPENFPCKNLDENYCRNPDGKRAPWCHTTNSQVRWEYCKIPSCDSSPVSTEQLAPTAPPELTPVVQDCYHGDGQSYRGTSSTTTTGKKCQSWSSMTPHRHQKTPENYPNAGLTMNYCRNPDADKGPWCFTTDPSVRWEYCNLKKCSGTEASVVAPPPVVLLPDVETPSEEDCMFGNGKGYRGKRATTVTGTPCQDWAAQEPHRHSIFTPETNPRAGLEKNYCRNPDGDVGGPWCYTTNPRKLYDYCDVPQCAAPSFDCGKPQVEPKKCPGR
smiles,measurement,setting,value
"Cl.N[C@H](CF)[C@H]1CC[C@H](C(=O)N2CC[C@@H](C3CCCCC3)[C@H]2C(=O)Nc2ccc3[nH]c(C(=O)O)cc3c2)CC1 [Reference Example 2-6, 5-{[(3S)-1-({trans-4-[(1S)-1-Amino-2-fluoroethyl]cyclohexyl}carbonyl)-3-cyclohexyl-L-prolyl]amino}-1H-indole-2-carboxylic acid hydrochloride]",IC50,Human FIXαβ,> 10 µM
same,IC50,Human plasmin,> 10 µM
same,IC50,Human t-PA,> 10 µM
same,IC50,Human tryptase,> 10 µM
same,PT (ratio),[1]; [4],1.01 ± 0.02 ratio
same,Thrombus weight,[1]; [4],81 ± 12 mg
same,aPTT (ratio),[1]; [4],1.24 ± 0.08 ratio
same,PT (ratio),[1]; [5],1.00 ± 0.02 ratio
same,Thrombus weight,[1]; [5],66 ± 22 mg
same,aPTT (ratio),[1]; [5],1.59 ± 0.15 ratio
same,PT (ratio),[1]; [6],1.01 ± 0.00 ratio
same,Thrombus weight,[1]; [6],36 ± 6 mg
same,aPTT (ratio),[1]; [6],1.84 ± 0.10 ratio
same,PT (ratio),[1]; dose 5.0 + 7.5 mg/kg + mg/kg/h,1.02 ± 0.02 ratio
same,Thrombus weight,[1]; dose 5.0 + 7.5 mg/kg + mg/kg/h,16 ± 6 mg
same,aPTT (ratio),[1]; dose 5.0 + 7.5 mg/kg + mg/kg/h,2.35 ± 0.09 ratio
same,AUC,[2],5220 ng·h/mL
same,AUC,[3],4420 ng·h/mL
